Test system: gastric mucosa
Assay: Example F7: gastric tolerability after oral administration in NEM-treated rats
Assay type: in vivo
Settings: rats all receiving NEM, p.o., 0.02 mmoles/Kg of each component
Method: Example F1 was repeated with four groups of rats (each group of ten animals), all of them receiving NEM, and orally administered as it follows: • a. control group: the vehicle formed of an aqueous suspension 1% w/v of carboxymethylcellulose, • b. one group (group b—comparative) administered at the same time with 5 mg/Kg (0.02 mmoles/Kg) of flurbiprofen+2.7 mg/Kg (0.02 mmoles/Kg) of 4-thiazolidin carboxilic acid in the same above vehicle, • c. one group (group c—comparative) administered at the same time with 7.4 mg/Kg (0.02 mmoles/Kg) of 4-(nitroxy)butyl ester of flurbiprofen, synthetized according to the method described in WO 94/12463, +2.7 mg/Kg (0.02 mmoles/Kg) of 4-thiazolidin carboxilic in the same above vehicle, • d. one group (group d) administered with 9.8 mg/Kg (0.02 mmoles/Kg) of 3-[2-fluoro-α-methyl-(1,1′-biphenyl)-4-acetyl]thiazolidin-4-carboxylic acid 4-(nitroxy)butyl ester synthetized as from Ex. 1(indicated as NO-Flurbiprofen in Table VII), in the above same vehicle.

`CC(C(=O)N1CSCC1C(=O)OCCCCO[N+](=O)[O-])c1ccc(-c2ccccc2)c(F)c1` (stereo not drawn) [Example 1, 3-[2-fluoro-α-methyl-(1,1′-biphenyl)-4-acetyl]thiazolidin-4-carboxylic acid 4-(nitroxy)butyl ester] was tested, and the Gastropathy % incidence was 0%.

Source: US7402600B2, “Nitroderivatives of cardiovascular agents” (NicOx S.A., priority 1999, dated 2008)
